15 compounds from ChEMBL document CHEMBL3046266, “Synthesis of curcumin and ethylcurcumin bioconjugates as potential antitumor agents” (Med Chem Res, 2012) can be followed below.

One series has as its system LLC-PK1. The experiment in a line: Cytotoxicity against Sus scrofa (pig) LLC-PK1 cells up to 25 uM by neutral red staining. It is filed as cell-based.
In series [1] the test system is KB. Nature of the series: Cytotoxicity against Homo sapiens (human) KB cells by neutral red staining. The class given is functional, cell-based.
Series [2] relates to SK-MEL. The experiment in a line: Cytotoxicity against Homo sapiens (human) SK-MEL cells by neutral red staining. It is filed as functional, cell-based.
The subject of series [3] is BT-549. The experiment in a line: Cytotoxicity against Homo sapiens (human) BT549 cells by neutral red staining. It is filed as functional, cell-based.
Series [4] addresses T1, DNA topoisomerase 1 (Homo sapiens) (UniProt P11387).
T1 sequence (whole entry): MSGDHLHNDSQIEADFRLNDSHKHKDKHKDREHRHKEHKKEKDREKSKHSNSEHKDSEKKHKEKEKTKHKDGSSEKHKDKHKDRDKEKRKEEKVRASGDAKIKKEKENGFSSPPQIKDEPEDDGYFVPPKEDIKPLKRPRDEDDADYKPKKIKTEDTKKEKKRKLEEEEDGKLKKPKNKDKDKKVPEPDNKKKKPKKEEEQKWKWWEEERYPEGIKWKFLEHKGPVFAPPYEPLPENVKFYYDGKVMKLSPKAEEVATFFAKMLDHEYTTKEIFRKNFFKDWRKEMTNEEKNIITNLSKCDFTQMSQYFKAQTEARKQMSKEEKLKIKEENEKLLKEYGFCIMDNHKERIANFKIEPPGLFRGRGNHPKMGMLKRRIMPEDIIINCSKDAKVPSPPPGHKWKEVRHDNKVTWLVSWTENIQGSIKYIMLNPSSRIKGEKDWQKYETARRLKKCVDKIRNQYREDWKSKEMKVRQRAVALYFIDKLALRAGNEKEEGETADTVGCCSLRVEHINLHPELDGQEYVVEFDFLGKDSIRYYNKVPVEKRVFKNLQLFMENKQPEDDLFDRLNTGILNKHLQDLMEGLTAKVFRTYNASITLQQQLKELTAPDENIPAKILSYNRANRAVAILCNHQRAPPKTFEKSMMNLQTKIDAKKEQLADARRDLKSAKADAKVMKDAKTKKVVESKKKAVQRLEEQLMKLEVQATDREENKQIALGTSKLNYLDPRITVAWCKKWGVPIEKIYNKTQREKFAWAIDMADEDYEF
The experiment in a line: Inhibition of Homo sapiens (human) topoisomerase 1 assessed as production of nicked DNA up to 25 uM by agarose gel electrophoresis.

Series [5] addresses DNA topoisomerase 2-alpha (Homo sapiens, UniProt P11388). Nature of the series: Inhibition of Homo sapiens (human) topoisomerase 2 assessed as decatenation of KDNA by agarose gel electrophoresis.
Series [6] addresses T1, DNA topoisomerase 1 (Homo sapiens). The experiment in a line: Inhibition of Homo sapiens (human) topoisomerase 1 assessed as relaxation of supercoiled DNA up to 25 uM by agarose gel electrophoresis.
Another series has as its system Vero. Nature of the series: Cytotoxicity against Chlorocebus aethiops (African green monkey) Vero cells up to 25 uM by neutral red staining. It is filed as cell-based. As to conditions: chlorocebus sabaeus.
For another series, the system named is SK-OV-3. The experiment in a line: Cytotoxicity against Homo sapiens (human) SKOV3 cells up to 25 uM by neutral red staining. The class given is functional, cell-based.
In series [7] the test system is SK-MEL. The experiment in a line: Cytotoxicity against Homo sapiens (human) SK-MEL cells up to 25 uM by neutral red staining. The class given is functional, cell-based.
Series [8] deals with BT-549. Nature of the series: Cytotoxicity against Homo sapiens (human) BT549 cells up to 25 uM by neutral red staining. It is filed as functional, cell-based.
For series [9], the system named is KB. Nature of the series: Cytotoxicity against Homo sapiens (human) KB cells up to 25 uM by neutral red staining. It is filed as functional, cell-based.

Calls of active or inactive are those of the source. No cut-off for these calls is given here.

Sequence of DNA topoisomerase 2-alpha (P11388 whole entry): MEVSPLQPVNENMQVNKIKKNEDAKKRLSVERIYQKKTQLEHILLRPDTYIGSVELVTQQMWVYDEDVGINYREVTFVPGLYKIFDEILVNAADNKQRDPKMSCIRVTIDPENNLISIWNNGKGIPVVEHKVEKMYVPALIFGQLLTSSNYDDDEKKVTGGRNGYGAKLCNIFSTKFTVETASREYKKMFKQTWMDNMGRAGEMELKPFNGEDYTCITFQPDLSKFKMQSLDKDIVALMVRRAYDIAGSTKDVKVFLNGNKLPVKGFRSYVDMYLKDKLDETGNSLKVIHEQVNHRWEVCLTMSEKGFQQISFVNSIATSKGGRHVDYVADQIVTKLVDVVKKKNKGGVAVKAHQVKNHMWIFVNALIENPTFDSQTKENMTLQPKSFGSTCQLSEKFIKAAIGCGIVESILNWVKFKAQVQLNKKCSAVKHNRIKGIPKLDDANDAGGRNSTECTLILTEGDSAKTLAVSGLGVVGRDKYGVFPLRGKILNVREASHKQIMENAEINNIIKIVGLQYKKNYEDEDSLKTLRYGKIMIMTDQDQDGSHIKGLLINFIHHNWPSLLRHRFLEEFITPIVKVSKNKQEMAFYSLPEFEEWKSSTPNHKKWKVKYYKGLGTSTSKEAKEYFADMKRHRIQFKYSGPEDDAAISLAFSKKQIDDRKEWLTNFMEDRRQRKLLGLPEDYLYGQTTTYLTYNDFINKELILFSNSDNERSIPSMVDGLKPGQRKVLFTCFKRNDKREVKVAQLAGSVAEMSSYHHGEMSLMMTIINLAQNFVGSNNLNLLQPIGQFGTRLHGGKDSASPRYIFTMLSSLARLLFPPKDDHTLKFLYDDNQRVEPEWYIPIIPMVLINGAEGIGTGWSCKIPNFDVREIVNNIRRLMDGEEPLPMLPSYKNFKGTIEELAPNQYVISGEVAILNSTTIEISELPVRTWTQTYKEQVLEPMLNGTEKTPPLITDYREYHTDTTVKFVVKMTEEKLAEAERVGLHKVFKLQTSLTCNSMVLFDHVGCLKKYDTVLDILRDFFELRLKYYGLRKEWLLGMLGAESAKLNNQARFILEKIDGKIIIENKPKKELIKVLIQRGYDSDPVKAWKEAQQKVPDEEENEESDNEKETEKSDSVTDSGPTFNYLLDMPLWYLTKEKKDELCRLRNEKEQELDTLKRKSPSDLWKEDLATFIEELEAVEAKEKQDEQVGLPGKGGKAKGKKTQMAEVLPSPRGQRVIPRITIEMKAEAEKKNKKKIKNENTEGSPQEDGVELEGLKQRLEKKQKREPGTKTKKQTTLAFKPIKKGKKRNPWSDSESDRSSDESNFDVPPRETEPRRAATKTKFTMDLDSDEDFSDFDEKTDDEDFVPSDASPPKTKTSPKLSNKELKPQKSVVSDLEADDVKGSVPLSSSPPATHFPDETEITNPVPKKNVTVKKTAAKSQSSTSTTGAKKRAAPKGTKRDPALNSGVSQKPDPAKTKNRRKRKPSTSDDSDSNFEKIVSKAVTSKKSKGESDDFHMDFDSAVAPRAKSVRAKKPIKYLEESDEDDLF

In the case of `COc1cc(/C=C/C(=O)CC(=O)/C=C/c2ccc(O)c(OC)c2)ccc1O` [CURCUMIN], the Activity result in the series with LLC-PK1 and with Vero was “Non-toxic” in each case. In addition, the IC50 with KB [1] was > 25 µM; in the series with SK-MEL [2], 13.8 µM; with BT-549 [3], 10.5 µM; in [5], 15 µM. Also, the inhibition result in [4] and in series [6] was “inactive” in each case. The result in the series with SK-OV-3 was inactive.
Consider `CCOc1cc(/C=C/C(=O)CC(=O)/C=C/c2ccc(OC(=O)CCl)c(OCC)c2)ccc1OC(=O)CCl` [DI-O-CHLOROACETYLETHYL CURCUMIN], for which the Activity entry in the series with LLC-PK1 and in the series on Vero was “Non-toxic” throughout. In addition, the outcome in the series with SK-MEL [7], in the series on BT-549 [8], in the series with KB [9] and in the series with SK-OV-3 was inactive. Also, the inhibition result in [4] and in [6] was “inactive” throughout. For the same compound, the half-maximal inhibitory concentration (IC50) in [5] was 12 µM.
Regarding `COc1cc(/C=C/C(=O)CC(=O)/C=C/c2ccc(OC(=O)c3cccs3)c(OC)c2)ccc1OC(=O)c1cccs1` [DI-O-(2-THIENOYL)CURCUMIN], the Activity entry in the series with LLC-PK1 and in the series with Vero was “Non-toxic” in each case. For the same compound, the result with SK-MEL [7], with BT-549 [8], with KB [9] and in the series with SK-OV-3 was inactive. The inhibition entry in [4] and in [6] was “inactive” throughout. The IC50 in [5] worked out at 8 µM.
`CCCCCCC(=O)Oc1ccc(/C=C/C(=O)CC(=O)/C=C/c2ccc(OC(=O)CCCCCC)c(OC)c2)cc1OC` [DI-O-HEPTANOYLCURCUMIN]: the Activity entry with LLC-PK1 and in the series with Vero was “Non-toxic” each time. Besides, the result in the series on SK-MEL [7], in the series on BT-549 [8], with KB [9] and in the series on SK-OV-3 was inactive. Besides, the inhibition result in [4] and in series [6] was “inactive” in each case. For the same compound, in series [5], the half-inhibitory concentration (IC50) is 2.9 µM.
Consider `CCOc1cc(/C=C/C(=O)CC(=O)/C=C/c2ccc(OC(=O)CNC34CC5CC(CC(C5)C3)C4)c(OCC)c2)ccc1OC(=O)CNC12CC3CC(CC(C3)C1)C2`, for which the Activity entry in the series on LLC-PK1 and in the series with Vero was “Non-toxic” in each case. Besides, the result in the series on SK-MEL [7], in the series on BT-549 [8], in the series on KB [9] and in the series with SK-OV-3 was inactive. Moreover, the inhibition result in series [4] and in series [6] was “inactive” each time. Also, in series [5], the IC50 was found to be 3.4 µM.
Consider `COc1cc(/C=C/C(=O)CC(=O)/C=C/c2ccc(OC(=O)CCNC34CC5CC(CC(C5)C3)C4)c(OC)c2)ccc1OC(=O)CCNC12CC3CC(CC(C3)C1)C2`, for which the Activity result with LLC-PK1 and with Vero was “Non-toxic” in each case. Besides, the IC50 is > 25 µM in the series on KB [1], 18.5 µM with SK-MEL [2], 20.5 µM in the series on BT-549 [3] and 18 µM in series [5]. Moreover, the inhibition result in series [4] and in [6] was “inactive” throughout. Further, the result in the series on SK-OV-3 was inactive.
For the compound `COc1ccc2nc(NCCC(=O)Oc3ccc(/C=C/C(=O)CC(=O)/C=C/c4ccc(OC(=O)CCNc5nc6ccc(OC)cc6s5)c(OC)c4)cc3OC)sc2c1`, the Activity entry with LLC-PK1 and with Vero was “Non-toxic” in each case. For the same compound, the concentration for half-maximal inhibition (IC50) was > 25 µM with KB [1], 23.8 µM in the series on SK-MEL [2], 23.8 µM in the series on BT-549 [3] and 19 µM in series [5]. Besides, the inhibition entry in series [4] and in series [6] was “inactive” each time. For the same compound, in the series on SK-OV-3, the outcome was inactive.
For `COc1cc(/C=C/C(=O)CC(=O)/C=C/c2ccc(OC(=O)CNCCCl)c(OC)c2)ccc1OC(=O)CNCCCl`, the Activity result in the series on LLC-PK1 and in the series on Vero was “Non-toxic” each time. Besides, the result in the series with SK-MEL [7], with BT-549 [8], with KB [9] and in the series on SK-OV-3 was inactive. Moreover, the inhibition result in series [4] and in series [6] was “inactive” each time. The concentration for half-maximal inhibition (IC50) in [5] was determined as 0.35 µM.
Take `COc1cc(/C=C/C(=O)CC(=O)/C=C/c2ccc(OC(=O)CNC34CC5CC(CC(C5)C3)C4)c(OC)c2)ccc1OC(=O)CNC12CC3CC(CC(C3)C1)C2`: the Activity entry in the series on LLC-PK1 and in the series on Vero was “Non-toxic” each time. The IC50 is > 25 µM in the series on KB [1], 15 µM in the series with SK-MEL [2], 19.4 µM in the series with BT-549 [3] and 4 µM in [5]. For the same compound, the inhibition result in series [4] and in series [6] was “inactive” each time. Further, the result in the series with SK-OV-3 was inactive.
With `CCOc1cc(/C=C/C(=O)CC(=O)/C=C/c2ccc(OC(=O)CCNC34CC5CC(CC(C5)C3)C4)c(OCC)c2)ccc1OC(=O)CCNC12CC3CC(CC(C3)C1)C2`, the Activity result with LLC-PK1 and in the series with Vero was “Non-toxic” each time. Further, the IC50 with KB [1] worked out at 15 µM; in series [5], 2.1 µM. Besides, the outcome in the series on SK-MEL [7], with BT-549 [8] and with SK-OV-3 was inactive. Besides, the inhibition result in series [4] and in [6] was “inactive” throughout.
Consider `CCOc1cc(/C=C/C(=O)CC(=O)/C=C/c2ccc(OC(=O)CCNCCN(CC)CC)c(OCC)c2)ccc1OC(=O)CCNCCN(CC)CC`, for which the Activity result in the series with LLC-PK1 and in the series with Vero was “Non-toxic” each time. The result with SK-MEL [7], with BT-549 [8], with KB [9] and in the series with SK-OV-3 was inactive. In addition, the inhibition result in series [4] and in [6] was “inactive” in each case. In addition, the IC50 in series [5] was 7.1 µM.
Regarding `COc1cc(/C=C/C(=O)CC(=O)/C=C/c2ccc(OC(=O)C34CC5CC(CC(C5)C3)C4)c(OC)c2)ccc1OC(=O)C12CC3CC(CC(C3)C1)C2` [DI-O-ADAMANTOYLCURCUMIN], the Activity entry in the series on LLC-PK1 and in the series with Vero was “Non-toxic” in each case. The outcome in the series on SK-MEL [7], in the series with BT-549 [8], in the series on KB [9] and in the series with SK-OV-3 was inactive. Moreover, the inhibition result in series [4] and in series [6] was “inactive” in each case. For the same compound, in series [5], the 50% inhibitory concentration (IC50) came to 4.5 µM.
For `COc1cc(/C=C/C(=O)CC(=O)/C=C/c2ccc(OC(=O)CCl)c(OC)c2)ccc1OC(=O)CCl` [DI-O-CHLOROACETYLCURCUMIN], the Activity result in the series on LLC-PK1 and with Vero was “Non-toxic” in each case. For the same compound, the IC50 in the series on KB [1] was > 25 µM; in the series on SK-MEL [2] it was 12.5 µM; with BT-549 [3], 10 µM; in series [5], 20 µM. Further, the inhibition result in series [4] and in series [6] was “inactive” in each case. Also, the result in the series with SK-OV-3 was inactive.
As for `CCOc1cc(/C=C/C(=O)CC(=O)/C=C/c2ccc(OC(=O)CCCl)c(OCC)c2)ccc1OC(=O)CCCl` [DI-O-CHLOROPROPIONYLETHYL CURCUMIN], the Activity result in the series with LLC-PK1 and with Vero was “Non-toxic” throughout. The outcome in the series with SK-MEL [7], with BT-549 [8], in the series with KB [9] and in the series on SK-OV-3 was inactive. The inhibition result in [4] and in series [6] was “inactive” in each case. The IC50 in series [5] was determined as 20 µM.
Regarding `CCOc1cc(/C=C/C(=O)CC(=O)/C=C/c2ccc(O)c(OCC)c2)ccc1O` [ETHYL CURCUMIN], the Activity result in the series on LLC-PK1 and in the series with Vero was “Non-toxic” each time. Moreover, the IC50 in the series with KB [1] was > 25 µM; with SK-MEL [2], 16 µM; with BT-549 [3], 18 µM; in [5] it was 7.5 µM. Also, the inhibition result in [4] and in series [6] was “inactive” each time. For the same compound, the outcome in the series with SK-OV-3 was inactive.

For orientation: IC50 means the midpoint of a concentration-inhibition curve.
